Assay results reported in article PMC11747885, “Potent inhibitors of the human RNA ligase Rlig1 highlights its role in RNA integrity maintenance under oxidative cellular stress” (Chemical Science, 2025).
Converted amounts (≈) assume the structure as drawn. “And” between values parts separate entries of the source, which are not always exact repeats. Equal values may be shown once. “Also recorded” adds a separate entry of the source. Read-outs that look alike come from different tables or passages of the source. Marks after values point to notes of the source that are not given here. Blank lines part the entries; values can stand above or below the compound they belong to.

What was measured:
Rlig1-AMP [1] = target: T1, Rlig1-AMP (Homo sapiens, UniProt Q8N999); test: FRET-based high-throughput screening of inhibitors for Rlig1-AMP; type: biochemical; conditions: sheet HTS hits; for 1-D Distance: difference of raw data w/o and w enzyme; for Raw data [w Enyzm]: with enzyme; for Raw data [w/o Enzym]: without enzyme; for 1-D Distance.npi: MedChemExpress library
T1 construct: made in house; host or cells: E. coli BL21 (DE3), pET15b-Rlig1

[2] = ref MedChemExpress, cited from earlier work; for solubility, DMSO: in DMSO; for solubility, H2O: in H2O
Rlig1-AMP [3] = target: T1, Rlig1-AMP; test: Radioactive RNA ligation assay (hit validation, 10 µM test and IC50 determination); type: biochemical; conditions: for IC50: n = 3
HEK293 cells [4] = test: Cell viability assay of HEK293 cells treated with inhibitors (CellTiter-Glo)
in vitro = conditions: human
[5] = Cell viability assay of HEK293 cells treated with inhibitors and menadione; type: cell-based, human; conditions: human, HEK293 cells, w/o Menadione; for viability at 7.5 µM: 7.5 µM compound; for viability at 15 µM: 15 µM compound; for viability at 30 µM: 30 µM compound; for viability at 60 µM: 60 µM compound
HEK293 cells [6] = test: as above; type: cell-based, human; conditions: for Mean Diff, (Predicted (LS) mean diff,) w/o menadione - w menadione: 2 way ANOVA, Šídák's multiple comparisons test, normalised viability
[7] = log(inhibitor) vs. response, variable slope (four parameters)
[8] = 20240508 plate 012, DMSO Ko no Mendione = 100
[9] = 20240508 plate 013, DMSO Ko no Mendione = 100
[10] = 20240515 plate 014, DMSO Ko no Mendione = 100
[11] = 20240515 plate 015, DMSO Ko no Mendione = 100

T1 sequence (Q8N999 whole entry): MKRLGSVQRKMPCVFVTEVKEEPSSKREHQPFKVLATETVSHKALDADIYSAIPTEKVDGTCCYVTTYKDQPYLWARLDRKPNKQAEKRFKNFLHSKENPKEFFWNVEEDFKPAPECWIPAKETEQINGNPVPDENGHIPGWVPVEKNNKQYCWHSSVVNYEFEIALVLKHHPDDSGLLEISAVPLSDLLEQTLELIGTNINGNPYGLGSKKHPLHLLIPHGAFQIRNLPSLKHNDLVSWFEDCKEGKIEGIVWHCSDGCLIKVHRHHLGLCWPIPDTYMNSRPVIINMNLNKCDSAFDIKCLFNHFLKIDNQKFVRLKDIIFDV

SMILES: COC(=O)c1cc(OC)c2c(c1-c1c(C(=O)OC)cc(OC)c3c1OCO3)OCO2 [Bifendate]
1-D Distance (Rlig1-AMP [1]): 1790 | Raw data [w Enyzm] (Rlig1-AMP [1]): 9076 | Raw data [w/o Enzym] (Rlig1-AMP [1]): 10866 | solubility, DMSO [2]: 50 mg/mL (≈ 120 mM) | solubility, H2O [2]: 1 mg/mL (≈ 2.39 mM)

SMILES: CCCCCCCCCCCCCCCC[n+]1ccccc1.O.[Cl-] [Cetylpyridinium (chloride monohydrate)]
solubility, DMSO [2]: 20 mg/mL | solubility, H2O [2]: ≥ 100 mg/mL

SMILES: CCCCCCCCCCCCCCCC[n+]1ccccc1.[Cl-] [Cetylpyridinium (chloride)]
solubility, DMSO [2]: DMSO : 100 mg/mL (294.13 mM; Need ultrasonic); H2O : 100 mg/mL (294.13 mM; Need ultrasonic) | solubility, H2O [2]: DMSO : 100 mg/mL (294.13 mM; Need ultrasonic); H2O : 100 mg/mL (294.13 mM; Need ultrasonic)

SMILES: Cc1cc(Nc2ccc(NC(=O)c3ccc(Nc4ncnc5ccccc45)cc3)cc2)nc(N)n1 [Compound 45]
inhibition of Rlig1-AMP ligation (urea-PAGE) (Rlig1-AMP [3]; 10 μM compound, 500 nM Rlig1-AMP, 20 min 37 °C): Ligation was inhibited; also recorded: inhibited ligase activity | HillSlope (best-fit value) (Rlig1-AMP [3]; four-parameter fit): 4.095 | Span (best-fit value) (Rlig1-AMP [3]; four-parameter fit): 90.88 | IC50 (Rlig1-AMP [3]; four-parameter fit, read-out: IC50 (best-fit value)): 7.02 µM | inhibition at 30 µM (Rlig1-AMP [3]; log Compound [µM] 1.47712, replicates I-III, read-out: percentage inhibition (dose response curve for IC50)): 100% | LogIC50 (best-fit value) (Rlig1-AMP [3]; log of µM, four-parameter fit): 0.8461 | Bottom (best-fit value) (Rlig1-AMP [3]; [7]): 7.303 | Top (best-fit value) (Rlig1-AMP [3]; [7]): 98.18 | IC50 (Rlig1-AMP [3]; radioactive ligation assay, 500 nM Rlig1-AMP, 20 min 37 °C, read-out: IC50): 7.02 µM | cytotoxicity (in words) (HEK293 cells [4]; HEK293, 24 h, up to 30 μM): no detectable cytotoxicity | IC50 (Figure 3D: EC50 values for plot; log(inhibitor) vs. response -- Variable slope (four parameters)) (HEK293 cells [4]; HEK293 cell viability, fit per plate (3 plates, 4 technical replicates each), highest tested concentration 30 µM): 336.896 µM and 119.897 µM and 368.238 µM | LogIC50 (log(inhibitor) vs. response -- Variable slope (four parameters)) (HEK293 cells [4]; HEK293 cell viability, fit per plate (3 plates, 4 technical replicates each), log of [µM]): 2.5275 and 2.079 and 2.566 | EC50 (HEK293 cells [4]; Homo sapiens, HEK293, 24 h): > 30 µM | viability at 24 h, 0.234375 µM (in vitro): 110% | viability at 24 h, 0.46875 µM (in vitro): 101% | viability at 24 h, 0.9375 µM (in vitro): 105% | viability at 24 h, 1.875 µM (in vitro): 100% | viability at 24 h, 3.75 µM (in vitro): 103% | viability at 24 h, 7.5 µM (in vitro): 97.1% | viability at 24 h, 15 µM (in vitro): 90.2% | viability at 24 h, 30 µM (in vitro): 88.8% | viability at 7.5 µM [5, 8]: 99.2% | viability at 7.5 µM [5, 9]: 99.9% | viability at 7.5 µM [5, 10]: 95.1% | viability at 7.5 µM [5, 11]: 102% | viability at 15 µM [5, 8]: 95.2% | viability at 15 µM [5, 9]: 92.3% | viability at 15 µM [5, 10]: 81.5% | viability at 15 µM [5, 11]: 84.3% | viability at 30 µM [5, 8]: 80.9% | viability at 30 µM [5, 9]: 93.3% | viability at 30 µM [5, 10]: 67.5% | viability at 30 µM [5, 11]: 77.5% | viability at 60 µM [5, 10]: 61.3% | viability at 60 µM [5, 11]: 65.6% | Mean Diff, (Predicted (LS) mean diff,) w/o menadione - w menadione (HEK293 cells [6]; 7.5 µM compound): 24.88 | Cell viability raw signal, technical replicates (HEK293 cells [6]; 7.5 µM compound, w Menadione (40µM), 20240508 plate 012): 16292 and 19945 and 19668 and 21930 | Cell viability raw signal, technical replicates (HEK293 cells [6]; 7.5 µM compound, w Menadione (40µM), 20240508 plate 013): 13213 and 13818 and 17967 and 18789 | Cell viability raw signal, technical replicates (HEK293 cells [6]; 7.5 µM compound, w Menadione (40µM), 20240515 plate 014): 24555 and 24471 and 26313 and 33654 | Cell viability raw signal, technical replicates (HEK293 cells [6]; 7.5 µM compound, w Menadione (40µM), 20240515 plate 015): 35092 and 33991 and 36306 and 39027 | Cell viability raw signal, technical replicates (HEK293 cells [6]; 7.5 µM compound, w/o Menadione, 20240508 plate 012): 424180 and 398710 and 420300 and 419520 | Cell viability raw signal, technical replicates (HEK293 cells [6]; 7.5 µM compound, w/o Menadione, 20240508 plate 013): 399000 and 385630 and 399650 and 394170 | Cell viability raw signal, technical replicates (HEK293 cells [6]; 7.5 µM compound, w/o Menadione, 20240515 plate 014): 359950 and 358800 and 374740 and 459430 | Cell viability raw signal, technical replicates (HEK293 cells [6]; 7.5 µM compound, w/o Menadione, 20240515 plate 015): 358750 and 400730 and 451820 and 450580 | Mean Diff, (Predicted (LS) mean diff,) w/o menadione - w menadione (HEK293 cells [6]; 15 µM compound): 16.86 | Cell viability raw signal, technical replicates (HEK293 cells [6]; 15 µM compound, w Menadione (40µM), 20240508 plate 012): 17222 and 18766 and 16741 and 22933 | Cell viability raw signal, technical replicates (HEK293 cells [6]; 15 µM compound, w Menadione (40µM), 20240508 plate 013): 19848 and 20626 and 16969 and 23253 | Cell viability raw signal, technical replicates (HEK293 cells [6]; 15 µM compound, w Menadione (40µM), 20240515 plate 014): 32272 and 27116 and 27955 and 28425 | Cell viability raw signal, technical replicates (HEK293 cells [6]; 15 µM compound, w Menadione (40µM), 20240515 plate 015): 25226 and 26073 and 29252 and 24387 | Cell viability raw signal, technical replicates (HEK293 cells [6]; 15 µM compound, w/o Menadione, 20240508 plate 012): 374870 and 367440 and 401070 and 451770 | Mean Diff, (Predicted (LS) mean diff,) w/o menadione - w menadione (HEK293 cells [6]; 30 µM compound): 21.74 | Cell viability raw signal, technical replicates (HEK293 cells [6]; 30 µM compound, w Menadione (40µM), 20240508 plate 012): 97659* and 121480* and 17759 and 18485 | Cell viability raw signal, technical replicates (HEK293 cells [6]; 30 µM compound, w Menadione (40µM), 20240508 plate 013): 90653* and 101750* and 11751 and 20016 | Cell viability raw signal, technical replicates (HEK293 cells [6]; 30 µM compound, w Menadione (40µM), 20240515 plate 014): 23460 and 20263 and 23532 and 25800 | Cell viability raw signal, technical replicates (HEK293 cells [6]; 30 µM compound, w Menadione (40µM), 20240515 plate 015): 18936 and 15616 and 21631 and 19990 | Cell viability raw signal, technical replicates (HEK293 cells [6]; 30 µM compound, w/o Menadione, 20240508 plate 012): 326400 and 344550 and 324690 and 360730 | Cell viability raw signal, technical replicates (HEK293 cells [6]; 30 µM compound, w/o Menadione, 20240508 plate 013): 380950 and 384250 and 337920 and 371050 | Cell viability raw signal, technical replicates (HEK293 cells [6]; 30 µM compound, w/o Menadione, 20240515 plate 014): 277620 and 270780 and 277750 and 275770 | Cell viability raw signal, technical replicates (HEK293 cells [6]; 30 µM compound, w/o Menadione, 20240515 plate 015): 297120 and 296520 and 307370 and 366230 | Mean Diff, (Predicted (LS) mean diff,) w/o menadione - w menadione (HEK293 cells [6]; 60 µM compound): 16.46 | Cell viability raw signal, technical replicates (HEK293 cells [6]; 60 µM compound, w Menadione (40µM), 20240515 plate 014): 18908 and 18178 and 17095 and 16101 | Cell viability raw signal, technical replicates (HEK293 cells [6]; 60 µM compound, w Menadione (40µM), 20240515 plate 015): 15825 and 18398 and 15296 and 15572 | Cell viability raw signal, technical replicates (HEK293 cells [6]; 60 µM compound, w/o Menadione, 20240515 plate 014): 265840 and 239610 and 250590 and 244440 | Cell viability raw signal, technical replicates (HEK293 cells [6]; 60 µM compound, w/o Menadione, 20240515 plate 015): 267940 and 266670 and 268950 and 268790

SMILES: COc1cccc2c1C(=O)c1c(O)c3c(c(O)c1C2=O)C[C@@](O)(C(C)=O)C[C@@H]3O[C@H]1C[C@H](N)[C@H](O)[C@H](C)O1.Cl [Daunorubicin (hydrochloride)]
1-D Distance.npi (Rlig1-AMP [1]): 94.9773 | 1-D Distance (Rlig1-AMP [1]): 667 | Raw data [w Enyzm] (Rlig1-AMP [1]): 1522 | Raw data [w/o Enzym] (Rlig1-AMP [1]): 2189 | solubility, DMSO [2]: 50 mg/mL | solubility, H2O [2]: ≥ 34 mg/mL

SMILES: C[C@]12C=CC(=O)N[C@@H]1CC[C@@H]1[C@@H]2CC[C@]2(C)[C@@H](C(=O)Nc3cc(C(F)(F)F)ccc3C(F)(F)F)CC[C@@H]12 [Dutasteride]
1-D Distance (Rlig1-AMP [1]): 1706 | Raw data [w Enyzm] (Rlig1-AMP [1]): 9054 | Raw data [w/o Enzym] (Rlig1-AMP [1]): 10760 | solubility, DMSO [2]: DMSO : 33.33 mg/mL (63.06 mM; Need ultrasonic)

1-D Distance (Rlig1-AMP [1]): 1388 | Raw data [w Enyzm] (Rlig1-AMP [1]): 3742 | Raw data [w/o Enzym] (Rlig1-AMP [1]): 5130
SMILES: CC1=NN(c2ccc(C)c(C)c2)C(=O)/C1=N\Nc1cccc(-c2cccc(C(=O)O)c2)c1O [Eltrombopag]
solubility, DMSO [2]: 8.33 mg/mL (≈ 18.8 mM) | solubility, H2O [2]: < 0.1 mg/mL

1-D Distance (Rlig1-AMP [1]): 1343 | Raw data [w Enyzm] (Rlig1-AMP [1]): 9476 | Raw data [w/o Enzym] (Rlig1-AMP [1]): 10819
SMILES: COC(=O)/C=C/c1ccc(O)c(O)c1 [Methyl caffeate]
solubility, DMSO [2]: DMSO : 33.33 mg/mL (171.64 mM; ultrasonic and warming and heat to 60°C)

SMILES: [N-]=[N+]=NCCOCCOCCOCCN(CCOCCOCCN)CCOCCOCCOCCN=[N+]=[N-] [N-(Amino-PEG2)-N-bis(PEG3-azide)]
1-D Distance.npi (Rlig1-AMP [1]): 72.3118 | 1-D Distance (Rlig1-AMP [1]): 1919 | Raw data [w Enyzm] (Rlig1-AMP [1]): 9036 | Raw data [w/o Enzym] (Rlig1-AMP [1]): 10955 | solubility, DMSO [2]: DMSO : 100 mg/mL (181.60 mM; Need ultrasonic)
